Reference: the NIST ThermoML archive (doi:10.1021/je5001507)

What was measured:
[1] = for mass density / electrical conductivity / viscosity: 101.33 kPa, Liquid; for mass density: Vibrating tube method; for surface tension liquid-gas: plate method; for electrical conductivity: Alternating current cell with electrodes
[2] = refractive index (Na D-line) (dimensionless); settings: 101.33 kPa, Liquid, Standard Abbe refractometry

CC(C)C[NH2+]CCCS(=O)(=O)O.O=S(=O)([O-])O [N-isobutyl-3-sulfopropan-1-aminium hydrogen sulfate]
Settings | electrical conductivity, [1] [S/m] | mass density, [1] [kg/m3] | refractive index, [2] | surface tension liquid-gas, [1] [mN/m] | viscosity, [1] [mPa·s]
293.15 K | – | 1387.92 | 1.50559 | – | –
298.15 K | 0.00856 | – | 1.50436 | 52.18 | –
303.15 K | 0.0145 | 1383.65 | 1.50314 | 51.64 | –
308.15 K | 0.0235 | – | 1.50205 | 51.14 | 14383
313.15 K | 0.0367 | 1377.6 | 1.5008 | 50.69 | 9083
318.15 K | 0.0526 | – | 1.49974 | 50.15 | 5533
323.15 K | 0.0713 | 1371.59 | 1.49851 | 49.58 | 3833
328.15 K | 0.104 | – | 1.49756 | 48.98 | 2867
333.15 K | 0.14 | 1365.64 | 1.4963 | – | 1983
338.15 K | 0.177 | – | – | – | 1333
343.15 K | 0.221 | 1359.71 | – | – | 1033
348.15 K | 0.28 | – | – | – | 766.7
353.15 K | 0.353 | 1353.8 | – | – | 616.7
358.15 K | – | – | – | – | 483.3
363.15 K | – | 1347.97 | – | – | 416.7
368.15 K | – | – | – | – | 333.3
373.15 K | – | – | – | – | 283.3

CC(C)C[NH2+]CCCCS(=O)(=O)O.O=S(=O)([O-])O [N-isobutyl-4-sulfobutan-1-aminium hydrogen sulfate]
Settings | electrical conductivity, [1] [S/m] | mass density, [1] [kg/m3] | refractive index, [2] | surface tension liquid-gas, [1] [mN/m] | viscosity, [1] [mPa·s]
293.15 K | – | 1359.08 | 1.48143 | – | –
298.15 K | 0.593 | – | 1.4803 | 47.15 | 14433
303.15 K | 0.757 | 1353.21 | 1.47918 | 46.79 | 9450
308.15 K | 1.04 | – | 1.47804 | 46.48 | 6033
313.15 K | 1.32 | 1347.39 | 1.47689 | 46.12 | 4267
318.15 K | 1.65 | – | 1.47576 | 45.74 | 2967
323.15 K | 2.16 | 1341.63 | 1.47461 | 45.3 | 2117
328.15 K | 2.53 | – | 1.4734 | 44.93 | 1550
333.15 K | 3.01 | 1335.95 | 1.47212 | – | 1033
338.15 K | 3.67 | – | – | – | 766.7
343.15 K | 4.29 | 1330.29 | – | – | 633.3
348.15 K | 4.96 | – | – | – | 483.3
353.15 K | 5.61 | 1324.66 | – | – | 383.3
358.15 K | – | – | – | – | 316.7
363.15 K | – | 1319.09 | – | – | 266.7
368.15 K | – | – | – | – | 200
373.15 K | – | – | – | – | 166.7
